Data from patent US12037350B2, “Compositions and methods for the prevention and/or treatment of mitochondrial disease, including Friedreich's ataxia” (Stealth BioTherapeutics Inc., priority 2020, dated 2024).
“Also recorded” adds a separate entry of the source.

Assays:
[1] = test system: frataxin deficient fibroblasts (GM03665) from Friedreich's ataxia patient; test: Frataxin Deficient Fibroblast Viability Assay (BSO Assay); assay type: cell-based
Description: Example 12: Frataxin Deficient Fibroblast Viability Assay (the “BSO Assay”)
This Example was used to evaluate the various new compositions for their potential efficacy in the treatment of Friedreich's Ataxia (FA or FRDA)—substantially as described in the above cited Reference (Matthias et al.).
The stock solutions of the test articles (and control compounds) were prepared in dimethyl sulfoxide (DMSO at 10 mM), Working stock solutions (2 times concentrated) were prepared on the day of the experiment in respective cell culture medium to be used for assay (detailed medium description below). A listing of compounds used as test articles in this Example 12 are found in Table 1, below.
A patient derived frataxin deficient fibroblast cell line was obtained from Coriell Institute. More specifically, the following cell lines/DNA samples were obtained from the NIGMS Human Genetic Cell Repository at the Coriell Institute for Medical Research: GM03665. To evaluate importance of various growth conditions on cell susceptibility to BSO toxicity cells were grown on:
MEM (Sigma-Aldrich) 15% Fetal Bovine Serum (FBS) without growth factors;
MEM (Sigma-Aldrich) 15% FBS with growth factors (Catalogue number 100-18B, Recombinant Human FGF-basic (154 a.a.) and catalogue number AF-100-15, Animal-Free Recombinant Human EGF from Peprotech);
MEM199/MEM EBS (Bioconcept Ltd.) 10% FBS, insulin 10 μg/ml, L-glutamine 2 mM with growth factors (Catalogue number 100-18B, Recombinant Human FGF-basic (154 a.a.) and catalogue number AF-100-15, Animal-Free Recombinant Human EGF from Peprotech).
To conduct an experiment, fibroblast cells (from all growth conditions) were seeded (100 μL (cells 3×10^3/well) on 96-well plates in MEM199/MEM EBS medium 10% FBS, insulin 10 μg/mL, L-glutamine 2 mM with growth factors and allowed to grow on plate for 24 hrs. After 24 hrs., media was removed and then test compounds of interest were added (100 μL, 2 times concentrated stock) to 96-well plates (end DM80 concentration not exceeding 0.5%) and incubated for 24 hours. Then L-buthionine-sulfoximine (BSO, from Acros Organics, Cat. No. 235520010) was added (100 μL, 2 times concentrated stock) at end concentrations ranging from 1 to 10 mM. Both test compounds and BSO were dissolved in MEM199/MEM EBS medium 10% FBS, insulin 10 μg/mL, L-glutamine 2 mM with growth factors. Cell viability was monitored and either after 24- or 48-hours cell viability was assayed by MTT (Thiazolyl blue tetrazolium bromide) assay. For the MTT assay, media was removed and 100 μL of MTT 1 mg/mL was added, incubated for 2 hours at +37° C., then medium was removed and 100 μL of isopropanol added to dissolve sediment. Absorption was measured at 570 (OD570) and 650 (QD650) nm wavelengths. Control cells (vehicle instead of BSO and compound) and vehicle control (with BSO, but vehicle instead of test compound) were treated in the same manner as ceils with BSO and compound. All cell media contained penicillin and streptomycin 100 U/mL each.
Absorption readouts were processed as follows: ValueΔ=ValueOD570−ValueOD650 and the obtained values were used to calculate cell viability as % of control cell (i.e., no BSO, no compound, just vehicle) viability.
Except as otherwise indicated in Table 1, all samples were run in at least 3 replicates for test compounds and at least 8 replicates for controls (i.e., both control (no BSO, no compound) and vehicle control (i.e., with BSO, no compound). Exact N per data points are indicated in the figures/table legends. Results for the compounds (test articles and controls) tested are listed in Table 1, below.
This is a cell-based assay measuring cytotoxicity which results from oxidative stress subsequent to depletion of endogenous glutathione defense mechanisms. The cells were primary Friedreich Ataxia (FA) patient fibroblasts which were incubated for 48 hrs. in BSO, an inhibitor of gamma glutamyl synthetase, an enzyme required for glutathione production. […]

[2] = test system: HepG2 human hepatocarcinoma cells; test: Rotenone ATP Assay (Complex I by-pass assay); assay type: cell-based
Description: Example 13: Rotenone ATP Assay (a Complex I by-Pass Assay)
This assay has been adapted from Haefeli R H, Erb M, Gemperli A C, Robay D, Courdier Fruh I, et al. (2011) NQO1-Dependent Redox Cycling of Idebenone: Effects on Cellular Redox Potential and Energy Levels. PLoS ONE 6(3): e17963. HepG2 human hepatocarcinoma cells are co-incubated with the electron transport chain complex I toxin rotenone +/− compounds of interest and the corresponding effect on ATP synthesis is measured with a bioluminescent substrate.
The stock solutions of the test articles (See Table 1, below for a list of the test articles examined using this assay) were prepared in dimethyl sulfoxide (DMSO at 10 mM). Working stock solutions were prepared on the day of the experiment in glucose free, serum free Dulbecco's modified Eagles medium (DMEM) supplemented with 50 micromolar rotenone.
In brief, HepG2 cells were plated at 25,000 cells per well in low glucose (1 gram/Liter) DMEM medium+10% fetal calf serum and incubated for 24 hours. The following day, the media was decanted and subsequently replaced with glucose free/serum free DMEM which has been supplemented with 50 micromolar rotenone and compound of interest. Serial dilutions of compound were prepared in 3× dilutions beginning at 25 micromolar. The cells were incubated for 60 minutes in a humidified tissue culture incubator. Following incubation, ATP levels were quantified via bioluminescent assay (Promega […] Glo Assay kit) and readings were captured on a standard microplate reader.
ATP bioluminescence is plotted versus the log of compound of interest and data are used to generate EC50 values. Curve fitting is performed using a sigmoidal dose response curve fit function (GraphPad Prism software).
EC50 values were derived from seven-point dose response curves performed on n=3 technical replicates per dose. Robustness of curve fit was assessed as a quality control measure, with an R squared value of at least 0.80 being required for a successful curve fit. Compounds of interest showing an increase in ATP bioluminescence relative to vehicle control were verified in an independent biological replicate of n=3 technical replicates per dose.
This assay is a direct measure of the ability of compounds of interest to restore ATP production under conditions of inhibition of Complex I of the mitochondrial electron transport chain. As the majority of ATP produced via the electron transport chain is thought to derive from Complex I activity, significant impairment in Complex I function has dire biological consequences. Of note, Complex I mutations are thought to drive pathophysiology in multiple mitochondrial diseases, including Leigh syndrome and Leber's Hereditary Optic Neuropathy (LHON), while diminished Complex I activity and the resultant attenuation of ATP production has been shown in neurodegenerative diseases, including Friedreich's Ataxia, Parkinson's Disease and Huntington's Disease. In brief, most compounds were tested in the Rotenone Oxygraph Assay instead of this assay but only Idebenone was active amongst Omaveloxolone, Idebenone and Vatiquinone.

HepG2 cells = test: Rotenone Oxygraph Assay (high-resolution respirometry of intact HepG2 cells); assay type: cell-based, human
Description: Example 15: Rotenone Oxygraph Assay (High-Resolution Respirometry of Intact HepG2 Cells)
The Oxygraph-2k (O2k, OROBOROS INSTRUMENTS, Austria) was used for measurements of respiration of intact cells. The respirometry was performed in Dulbecco's Modified Eagle Medium (DMEM) high glucose without supplements. All experiments were performed at 37° C.
HepG2 cells (ATCC collection code HB-8065™) were cultured in 10 cm^2 culture dishes in DMEM high glucose medium supplemented with 10% fetal bovine serum (FBS) and 100 units/mL penicillin and 100 μg/mL streptomycin until approximately 90% confluence was reached. Immediately prior to performing the respirometric assay, the cells were washed with media without FBS, trypsinized and resuspended in DMEM high glucose without FBS.
The final concentration of intact cells in the O2k-chamber was 0.5-10^6/mL. After stabilization of respiration, the Complex I inhibitor, rotenone, at 1 μM final concentration was added to inhibit electron flux via Complex I. Then, compound to be tested was added at 10 μM final concentration, and the change in respiration rate of intact cells was monitored. […]

[3] = test system: GM03665 cells (fibroblasts from a subject with Friedreich's ataxia); test: RSL-3 Toxicity Assay (RSL-3 Assay); assay type: cell-based, human
Excerpt: Example 14: RSL-3 Toxicity Assay (RSL-3 Assay)
This assay has been adapted from: Hinman, A., Holst, C. R., Latham, J. C., Bruegger, J. J., Ulas, G., McCusker, K. P., Amagata, A., Davis, D., Hoff, K. G., Kahn-Kirby, A. H., Kim, V., Kosaka, Y., Lee, E., Malone, S. A., Mei, J. J., Richards, S. J., Rivera, V., Miller, G., Trimmer, J. K., Shrader, W. D., “Vitamin E hydroquinone is an endogenous regulator of ferroptosis via redox control of 15-lipoxygenase”, (2018) PLoS ONE 13(8): e0201369.
In brief, GM03665 cells (Coriell Institute) were seeded in 96-well plates (Sarstedt) in DMEM cell culture media containing 10% Fetal Bovine serum and 1% Penicillin-Streptomycin (Pen-Strep) antibiotic mix at the amount of 2×10^4/mL (100 μL or 2×10^3 cells per well). Cells were left to rest overnight at 37° C. in a humidified atmosphere with 5% CO2 to allow attachment of the cells to the culture plate. Test compounds were prepared as DMSO stocks (10 mM) and were serially diluted in cell culture media to obtain 2× working solutions. Cell media was discarded and replaced by 50 μL of test compound solutions or cell media with vehicle for control wells. Within 15 minutes, 2× working solution (4 μM) of 1S,3R-RSL-3 (CAS #1219810-16-8, Sigma-Aldrich) (diluted from 5 mM DMSO stock in cell culture media) was added. Final reaction volume was 100 μL and final DMSO concentration in reaction was kept below 0.2% (v/v) and equal in all wells. Final RSL-3 concentration was 2 μM and test compound final concentrations in reaction were up to 1000 nM. After 24 hours of incubation cell viability was assessed by MTT test. MTT (Sigma-Aldrich) solution 1 mg/mL in IX PBS (pH=7.4) was prepared 1 hour before the assay and filtered through Filtropur S 0.2 filters (Sarstedt). Cell media with test compounds was discarded and 100 μL of MTT solution was added to cells. The plates were incubated for 2 hours at +37° C. Thereafter, the MTT solution was removed and 100 μL of isopropanol was added to dissolve sediment. Absorption at 570 and 650 nm was measured using Hidex Sense microplate reader.
Compounds A and B and idebenone were not examined in this assay. The data presented in Table 1 indicates omaveloxolone was not active in this assay but that vatiquinone was active.
Discussion—Both BSO and RSL-3 are frequently utilized to induce the regulated cell death pathway known as ferroptosis. Ferroptosis is thought to require the joint activity of iron catalyzed oxidative stress and lipid peroxidation and has been described in cell and animal models of multiple neurodegenerative diseases, including Friedreich's Ataxia, Huntington Disease, Parkinson Disease and Alzheimer's Disease. […] Of note, the results for Compounds C-I and K were favorable with respect to inhibition of ferroptotic cell death when either BSO or RSL3 were used as initiating stimulus, differentiating these compounds from omaveloxolone and idebenone.

Structure (SMILES): COC1=C(OC)C(=O)C(CCCCCCCCCCO)=C(C)C1=O [Idebenone, reference compound]
- protection against BSO induced cell death (in words) ([1]; BSO Assay, text statement): not really very protective at all; also recorded: only very weakly active
- EC50 ([1]; Homo sapiens, Fibroblast, FA patient fibroblasts pretreated with compound, BSO 10 mM, MTT after 48 hrs): > 1 µM
- Complex I by-pass activity in Rotenone ATP Assay (in words) [2]: active
- Complex I by-pass activity in Rotenone Oxygraph Assay (in words) (HepG2 cells): active
- activation at 10 µM (HepG2 cells; Homo sapiens, intact HepG2 cells, rotenone 1 μM, compound 10 μM, increase in respiration rate): 70.2%

Structure (SMILES): CC(C)=CCC/C(C)=C/CC/C(C)=C/CC[C@@](C)(O)CCC1=C(C)C(=O)C(C)=C(C)C1=O [Vatiquinone, reference compound]
- protection against RSL-3 toxicity (in words) [3]: active
- EC50 ([3]; Homo sapiens, Fibroblast, GM03665 cells, RSL-3 2 μM, 24 hours, MTT): 0.056 µM
- Complex I by-pass activity in Rotenone ATP Assay (in words) [2]: inactive
- ATP Rotenone Assay EC50 ([2]; HepG2, 50 micromolar rotenone, 60 minutes, ATP bioluminescence): Inactive
- Complex I by-pass activity in Rotenone Oxygraph Assay (in words) (HepG2 cells): inactive
- Rotenone Oxygraph Assay % Increase (HepG2 cells; intact HepG2 cells, rotenone 1 μM, compound 10 μM, increase in respiration rate): Inactive
